Among the data in patent US11512090B2, “Muscarinic acetylcholine M1 receptor antagonists” (PIPELINE THERAPEUTICS, INC., priority 2018, dated 2022) are IC50 values, retold here.

The structures appear in SMILES notation. Read-outs that look alike come from different tables or passages of the source.

Common to all, as to assay type: cell-based
In assay [1] the target is M3 (Homo sapiens, UniProt P20309). Description: In vitro functional assay of muscarinic acetylcholine receptor activity, M3. Particulars: antagonist IC50 at M3; read-out: M3 IC50.
For assay [2], the target named is T1, M2 (Homo sapiens, UniProt P08172).
T1 sequence (P08172 1-466): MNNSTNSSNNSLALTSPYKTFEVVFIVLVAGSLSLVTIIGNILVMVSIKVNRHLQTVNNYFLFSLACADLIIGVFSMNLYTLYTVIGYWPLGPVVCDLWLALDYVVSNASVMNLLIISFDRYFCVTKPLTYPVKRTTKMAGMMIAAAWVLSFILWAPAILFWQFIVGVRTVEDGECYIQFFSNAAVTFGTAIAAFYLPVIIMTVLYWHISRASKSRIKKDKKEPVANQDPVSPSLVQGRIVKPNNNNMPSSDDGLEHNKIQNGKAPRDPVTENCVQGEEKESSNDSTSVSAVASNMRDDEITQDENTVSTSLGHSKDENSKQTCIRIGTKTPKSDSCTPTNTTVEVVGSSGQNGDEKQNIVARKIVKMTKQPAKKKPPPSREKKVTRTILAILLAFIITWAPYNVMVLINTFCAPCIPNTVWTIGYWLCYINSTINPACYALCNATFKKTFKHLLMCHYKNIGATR
Description: In vitro functional assay of muscarinic acetylcholine receptor activity, M2.

For assay [3], the target named is T2, human M1 receptor (Homo sapiens, UniProt P11229).
T2 sequence (P11229 1-460): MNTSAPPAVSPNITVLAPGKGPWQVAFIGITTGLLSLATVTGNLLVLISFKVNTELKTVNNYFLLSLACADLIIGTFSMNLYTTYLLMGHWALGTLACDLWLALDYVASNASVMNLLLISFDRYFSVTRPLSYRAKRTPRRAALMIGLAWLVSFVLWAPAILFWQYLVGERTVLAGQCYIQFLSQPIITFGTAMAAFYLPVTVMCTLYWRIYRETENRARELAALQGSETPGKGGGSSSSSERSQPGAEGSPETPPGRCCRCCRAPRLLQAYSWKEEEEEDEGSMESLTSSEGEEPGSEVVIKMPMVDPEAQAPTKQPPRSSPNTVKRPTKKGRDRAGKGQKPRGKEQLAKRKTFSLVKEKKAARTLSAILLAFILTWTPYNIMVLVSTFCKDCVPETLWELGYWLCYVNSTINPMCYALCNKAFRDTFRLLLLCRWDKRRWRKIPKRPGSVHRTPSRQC
Description: In vitro functional assay of muscarinic acetylcholine receptor activity (aequorin calcium flux, antagonist mode vs EC80 acetylcholine), M1. In a few lines: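 Antagonism at M1 was measured as a concentration-dependent reduction of the EC80 acetylcholine-evoked aequorin luminescence, from which IC50 was derived. Human M1 CHO-K1 aequorin cells were first loaded with 5 uM coelenterazine h for 4 h and exposed to compound for 30 min at room temperature.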
A general note: Calcium assays in cells follow changes in intracellular calcium, usually with a dye or a luminescent sensor.

Setting [4] is: antagonist IC50 at M2, read-out: M2 IC50.
The mark [5] stands for this setting: CHO-K1 cells stably expressing human M1 receptor with Aequorin, decrease in EC80 acetylcholine response, read-out: M1 IC50.

M3, sequence (P20309 whole entry): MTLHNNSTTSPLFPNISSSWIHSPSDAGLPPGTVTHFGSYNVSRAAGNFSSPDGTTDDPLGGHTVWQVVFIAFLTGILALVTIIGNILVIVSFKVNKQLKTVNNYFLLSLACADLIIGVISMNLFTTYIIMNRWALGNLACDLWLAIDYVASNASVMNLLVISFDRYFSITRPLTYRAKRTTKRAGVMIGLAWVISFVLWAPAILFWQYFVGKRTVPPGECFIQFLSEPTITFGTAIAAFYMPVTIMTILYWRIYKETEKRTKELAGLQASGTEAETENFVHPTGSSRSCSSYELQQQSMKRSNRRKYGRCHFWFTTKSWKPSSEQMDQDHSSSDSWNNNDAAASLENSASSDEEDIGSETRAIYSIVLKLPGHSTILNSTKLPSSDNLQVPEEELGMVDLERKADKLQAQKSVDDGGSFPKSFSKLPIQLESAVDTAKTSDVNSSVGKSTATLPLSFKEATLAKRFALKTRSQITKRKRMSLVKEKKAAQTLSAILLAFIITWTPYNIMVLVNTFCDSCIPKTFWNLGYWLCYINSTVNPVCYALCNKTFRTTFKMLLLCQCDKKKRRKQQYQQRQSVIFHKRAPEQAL

As for `Cc1cc(C#N)cnc1N1CC2CCC(C1)N2C(=O)CCNCc1cccc2ncsc12` [Example 161, 6-[8-(3-{[(1,3-benzothiazol-7-yl)methyl]amino}propanoyl)-3,8-diazabicyclo[3.2.1]octan-3-yl]-5-methylpyridine-3-carbonitrile], the half-inhibitory concentration (IC50) – broadly, the concentration at which inhibition is half-maximal – in assay [1] is over 10000 nM; in assay [2] (setting [4]) it was 1000 to 10000 nM; in assay [3], 100 to 1000 nM.

On to `N#Cc1ccc(N2CC3CCC2CN3C(=O)CCNCc2cccc3ncsc23)nc1` (stereo not drawn) [Example 162, 6-[5-(3-{[(1,3-benzothiazol-7-yl)methyl]amino}propanoyl)-2,5-diazabicyclo[2.2.2]octan-2-yl]pyridine-3-carbonitrile], for which the IC50 in assay [1] fell in the range of 1000 to 10000 nM; in assay [2] (setting [4]), 1000 to 10000 nM; in assay [3] (setting [5]) it was 100 to 1000 nM.

In the case of `O=C(CCNCc1cccn2nccc12)N1CC2CCC(C1)N2c1ccc(Cl)cn1` [Example 163, 1-[8-(5-chloropyridin-2-yl)-3,8-diazabicyclo[3.2.1]octan-3-yl]-3-[({pyrazolo[1,5-a]pyridin-4-yl}methyl)amino]propan-1-one], the concentration for half-maximal inhibition (IC50) in assay [1] is over 10000 nM; in assay [2] (setting [4]) it was 1000 to 10000 nM; in assay [3], 100 to 1000 nM.

Turning to `N#Cc1ccc(N2C3CCC2CN(C(=O)CCN(Cc2cccc4ncnn24)C2CC2)C3)nc1` [Example 164, 6-(3-{3-[cyclopropyl({[1,2,4]triazolo[1,5-a]pyridin-5-yl}methyl)amino]propanoyl}-3,8-diazabicyclo[3.2.1]octan-8-yl)pyridine-3-carbonitrile], the IC50 in assay [1] was 1000 to 10000 nM; in assay [2] (setting [4]), 1000 to 10000 nM; in assay [3] it was under 100 nM.

As to `N#Cc1ccc(N2C3CCC2CN(C(=O)CCNCc2cccn4nccc24)C3)nc1` [Example 165, 6-(3-{3-[({pyrazolo[1,5-a]pyridin-4-yl}methyl)amino]propanoyl}-3,8-diazabicyclo[3.2.1]octan-8-yl)pyridine-3-carbonitrile], the figures for the concentration for half-maximal inhibition (IC50) in assay [1], in assay [2] (setting [4]) and in assay [3] were 1000 to 10000 nM, 1000 to 10000 nM and 100 to 1000 nM, respectively.

Consider `N#Cc1ccc(N2C3CCC2CN(C(=O)CNCCc2cccc4ncsc24)C3)nc1` [Example 166, 6-[3-(2-{[2-(1,3-benzothiazol-7-yl)ethyl]amino}acetyl)-3,8-diazabicyclo[3.2.1]octan-8-yl]pyridine-3-carbonitrile], for which the half-inhibitory concentration (IC50) fell in the range of 1000 to 10000 nM in assay [1], 1000 to 10000 nM in assay [2] (setting [4]) and 100 to 1000 nM in assay [3].

For `O=C(CCNCc1c(F)ccc2nccn12)N1CC2CCC(C1)N2c1ccc(Cl)cn1` [Example 167, 1-[8-(5-chloropyridin-2-yl)-3,8-diazabicyclo[3.2.1]octan-3-yl]-3-[({6-fluoroimidazo[1,2-a]pyridin-5-yl}methyl)amino]propan-1-one], the IC50 in assay [1] is over 10000 nM; in assay [2] (setting [4]), 1000 to 10000 nM; in assay [3], under 100 nM.

Regarding `Cc1nc2cccc(CNCCC(=O)N3CC4CCC(C3)N4c3ccc(C#N)cn3)n2n1` [Example 168, 6-(3-{3-[({2-methyl-[1,2,4]triazolo[1,5-a]pyridin-5-yl}methyl)amino]propanoyl}-3,8-diazabicyclo[3.2.1]octan-8-yl)pyridine-3-carbonitrile], the figures for the IC50 in assay [1], in assay [2] (setting [4]) and in assay [3] were over 10000 nM, 1000 to 10000 nM and 100 to 1000 nM, respectively.

For `CN(CCC(=O)N1CC2CCC(C1)N2c1ccc(C#N)cn1)Cc1cccc2ncsc12` [Example 169, 6-[3-(3-{[(1,3-benzothiazol-7-yl)methyl](methyl)amino}propanoyl)-3,8-diazabicyclo[3.2.1]octan-8-yl]pyridine-3-carbonitrile], the half-maximal inhibitory concentration (IC50) in assay [1] was 1000 to 10000 nM; in assay [2], 100 to 1000 nM; in assay [3] it was 100 to 1000 nM.

Regarding `CN(CCC(=O)N1CC2CCC(C1)N2c1ccc(C#N)cn1)Cc1cccc2ncnn12` [Example 170, 6-(3-{3-[methyl({[1,2,4]triazolo[1,5-a]pyridin-5-yl}methyl)amino]propanoyl}-3,8-diazabicyclo[3.2.1]octan-8-yl)pyridine-3-carbonitrile], the IC50 was in the range of 1000 to 10000 nM in assay [1], 1000 to 10000 nM in assay [2] (setting [4]) and 100 to 1000 nM in assay [3].

For the molecule `N#Cc1ccc(N2C3CCC2CN(C(=O)CCNCc2cccc4ncnn24)C3)cc1` [Example 171, 4-(3-{3-[({[1,2,4]triazolo[1,5-a]pyridin-5-yl}methyl)amino]propanoyl}-3,8-diazabicyclo[3.2.1]octan-8-yl)benzonitrile], the IC50 was over 10000 nM in assay [1], over 10000 nM in assay [2] (setting [4]) and 100 to 1000 nM in assay [3].

Consider `O=C(CCNCc1c(F)ccc2nccn12)N1CC2CCC(C1)N2c1ccc(C2CC2)cn1` [Example 172, 1-[8-(5-cyclopropylpyridin-2-yl)-3,8-diazabicyclo[3.2.1]octan-3-yl]-3-[({6-fluoroimidazo[1,2-a]pyridin-5-yl}methyl)amino]propan-1-one], for which the IC50 in assay [1] is over 10000 nM; in assay [2] (setting [4]), 1000 to 10000 nM; in assay [3] (setting [5]) it was 1000 to 10000 nM.

For the molecule `Cc1ccc2ncnn2c1CNCCC(=O)N1CC2CCC(C1)N2c1ccc(C#N)cn1` [Example 173, 6-(3-{3-[({6-methyl-[1,2,4]triazolo[1,5-a]pyridin-5-yl}methyl)amino]propanoyl}-3,8-diazabicyclo[3.2.1]octan-8-yl)pyridine-3-carbonitrile], the figures for the half-inhibitory concentration (IC50) in assay [1], in assay [2] (setting [4]) and in assay [3] were over 10000 nM, over 10000 nM and 100 to 1000 nM, respectively.

`N#Cc1ccc(N2C3CCC2CN(C(=O)CCN(Cc2cccc4ncnn24)C2COC2)C3)nc1` [Example 174, 6-(3-{3-[(oxetan-3-yl)({[1,2,4]triazolo[1,5-a]pyridin-5-yl}methyl)amino]propanoyl}-3,8-diazabicyclo[3.2.1]octan-8-yl)pyridine-3-carbonitrile]: the concentration for half-maximal inhibition (IC50) was over 10000 nM in assay [1], over 10000 nM in assay [2] (setting [4]) and 100 to 1000 nM in assay [3].

Regarding `N#Cc1ccc(-c2ccc(N3C4CCC3CN(C(=O)CCNCc3cccc5ncnn35)C4)cc2)nc1` [Example 175, 6-[4-(3-{3-[({[1,2,4]triazolo[1,5-a]pyridin-5-yl}methyl)amino]propanoyl}-3,8-diazabicyclo[3.2.1]octan-8-yl)phenyl]pyridine-3-carbonitrile], the IC50 in assay [1] is over 10000 nM; in assay [2] (setting [4]) it was 1000 to 10000 nM; in assay [3], 100 to 1000 nM.

On to `Cc1ccc(COCCC(=O)N2CC3CCC(C2)N3c2ccc(C#N)cn2)c2cccnc12` [Example 176, 6-(3-{3-[(8-methylquinolin-5-yl)methoxy]propanoyl}-3,8-diazabicyclo[3.2.1]octan-8-yl)pyridine-3-carbonitrile], for which the IC50 in assay [1] is over 10000 nM; in assay [2] (setting [4]), 1000 to 10000 nM; in assay [3], 100 to 1000 nM.

`Cc1ccc2ncccc2c1COCCC(=O)N1CC2CCC(C1)N2c1ccc(C#N)cn1` [Example 177, 6-(3-{3-[(6-methylquinolin-5-yl)methoxy]propanoyl}-3,8-diazabicyclo[3.2.1]octan-8-yl)pyridine-3-carbonitrile]: the figures for the IC50 in assay [1], in assay [2] (setting [4]) and in assay [3] were 1000 to 10000 nM, 1000 to 10000 nM and under 100 nM, respectively.

For the molecule `COc1cnc2cccc(CNCCC(=O)N3CC4CCC(C3)N4c3ccc(Cl)cn3)c2c1` [Example 178, 1-[8-(5-chloropyridin-2-yl)-3,8-diazabicyclo[3.2.1]octan-3-yl]-3-{[(3-methoxyquinolin-5-yl)methyl]amino}propan-1-one], the half-inhibitory concentration (IC50) was over 10000 nM in assay [1], over 10000 nM in assay [2] (setting [4]) and 100 to 1000 nM in assay [3].

As for `O=C(COCCc1cccn2ncnc12)N1CC2CCC(C1)N2c1ccc(Cl)cn1` [Example 179, 1-[8-(5-chloropyridin-2-yl)-3,8-diazabicyclo[3.2.1]octan-3-yl]-2-(2-{[1,2,4]triazolo[1,5-a]pyridin-8-yl}ethoxy)ethan-1-one], the values for the IC50 in assay [1], in assay [2] (setting [4]) and in assay [3] were over 10000 nM, over 10000 nM and under 100 nM, respectively.

Take `N#Cc1ccc(N2C3CCC2CN(C(=O)COCCc2cccn4ncnc24)C3)nc1` [Example 180, 6-{3-[2-(2-{[1,2,4]triazolo[1,5-a]pyridin-8-yl}ethoxy)acetyl]-3,8-diazabicyclo[3.2.1]octan-8-yl}pyridine-3-carbonitrile]: the IC50 in assay [1] is over 10000 nM; in assay [2] (setting [4]), 1000 to 10000 nM; in assay [3] it was under 100 nM.

Turning to `COc1cnc2cccc(CCOCC(=O)N3CC4CCC(C3)N4c3ccc(C#N)cn3)c2c1` [Example 181, 6-(3-{2-[2-(3-methoxyquinolin-5-yl)ethoxy]acetyl}-3,8-diazabicyclo[3.2.1]octan-8-yl)pyridine-3-carbonitrile], the figures for the IC50 in assay [1], in assay [2] (setting [4]) and in assay [3] were 1000 to 10000 nM, 1000 to 10000 nM and under 100 nM, respectively.
